According to patent US6960456B1, “Method for preparing conjugated linoleic acid” (Valio Ltd., priority 1999, dated 2005):

How the values were obtained:
[1] = tested on: Propionibacterium freudenreichii ssp. shermanii JS (PJS); assay: Growth of PJS strain in MRS medium containing linoleic acid (turbidity, Klett meter); format: cell-based; details: for Growth (cell density of the culture as turbidity, Klett meter): 600 μg/ml linoleic acid, 30° C.
Procedure: (§1) As controls were used the same medium without addition (positive growth control) and a medium to which only detergent was added. For the test, the propionic acid bacterium strains Propionibacterium freudenreichii ssp. shermanii JS (PJS), DSM 7067, and P. freudenreichii ssp. freudenreichii 131 ([…]) were first cultivated in MRS broths with • 1) no addition • 2) 600 μg/ml linoleic acid • 3) addition of 600 μg/ml linoleic acid from a stock solution containing 5 mg/ml linoleic acid and 1% of Tween 80 preparation in an aqueous solution (final content of Tween […]) • 4) addition of 0.9% of Kotilen and 600 μg/ml linoleic acid micellized according to Example 1 • 5) addition of 0.9% of Kotilen only (not linoleic acid) Each bacterium strain was cultivated in the culture medium twice at 30° C. for 72 h, whereafter each test broth was inoculated with 1% of fresh culture. The test cultures were monitored at 30° C. for 4 days by determining the cell density of the culture as turbidity with a Klett meter. At the end of cultivation (96 h), the amount of formed CLA was determined by gas chromatography, the c9,t11 isomer separately and the other isomers together.

[2] = tested on: P. freudenreichii ssp. freudenreichii 131 (P131); assay: Growth of P131 strain in MRS medium containing linoleic acid (turbidity, Klett meter); format: cell-based, Propionibacterium freudenreichii ssp. freudenreichii; details: for Growth (cell density of the culture as turbidity, Klett meter): 600 μg/ml linoleic acid, 30° C.
Procedure: as §1

propionic acid bacteria = details: even in relatively low concentrations; cited from earlier work
breast cancer = details: cited from earlier work
PJS cells = assay: Viable cell concentration in pH-adjusted fermentor culturing of PJS cells with micellized linoleic acid; format: cell-based, Propionibacterium freudenreichii ssp. shermanii
Procedure: The most efficient way to cultivate propionic acid bacteria on an industrial scale is to do it in a fermentor where the pH of the medium can be maintained optimal for cellular growth. A production process of conjugated linoleic acid by means of growing PJS cells was examined in fermentor cultures the solution volume being 2 liters. The whey permeate broth of Example 2 was used as growth medium. The growth broth contained micellized linoleic acid 400, 600, 1000 or 1400 μg/ml and Kotilen detergent 0.6, 0.9 or 1.5%, respectively. During the cultivation, the pH of the growth medium was maintained at 6.3 with linoleic acid concentrations of 400, 600 and 1000 μg/ml and at 6.5 with linoleic acid concentration of 1400 μg/ml by means of an automatic addition of ammonium solution. The cultivation temperature was 30° C. and the mixing rate was 100 rpm. The concentration of viable propionic acid bacteria cells was determined in buffered sodium lactate agar and the agar dishes were incubated at 30° C. anaerobically for 5 to 7 days. Table 3 compares the CLA production process in a fermentor, with the linoleic acid content in the medium of 400, 600 and 1000 μg/ml, after 94 hour cultivation, and that of 1400 μg/ml, after 108 and 132 hour cultivation.

fatty tissues = details: mouse, in vivo; cited from earlier work
[3] = tested on: high density lipoprotein (HDL); details: rabbit, in vivo; cited from earlier work
[4] = tested on: mammary, stomach and colon cancer; details: CLA-containing diet, compared with the reference group; cited from earlier work
cancer cells = details: tissue cultures of human cells; cited from earlier work

CCCCC/C=C\C/C=C\CCCCCCCC(=O)O [LA, cis-9,trans-12 octadecadienoic acid]
Effect on growth as compared with the control (in words) ([1]; 600 μg/ml): inhibited the growth
Growth (cell density of the culture as turbidity, Klett meter) ([1]; 0 h): 78
Growth (cell density of the culture as turbidity, Klett meter) ([1]; 24 h): 84
Growth (cell density of the culture as turbidity, Klett meter) ([1]; 48 h): 96
Growth (cell density of the culture as turbidity, Klett meter) ([1]; 72 h): 106
Growth (cell density of the culture as turbidity, Klett meter) ([1]; 96 h): 110
Effect on growth as compared with the control (in words) ([2]; 600 μg/ml): inhibited the growth
Growth (cell density of the culture as turbidity, Klett meter) ([2]; 0 h): 80
Growth (cell density of the culture as turbidity, Klett meter) ([2]; 24 h): 90
Growth (cell density of the culture as turbidity, Klett meter) ([2]; 48 h): 97
Growth (cell density of the culture as turbidity, Klett meter) ([2]; 72 h): 107
Growth (cell density of the culture as turbidity, Klett meter) ([2]; 96 h): 115
effect on the growth of propionic acid bacteria (propionic acid bacteria): inhibitory effect
effect on breast cancer (breast cancer): stimulating effect
cell concentration (cfu/ml) (PJS cells; micellized LA 400 μg/ml, deterg. (Kotilen) 0.6%, 94 h, pH 6.3, 30° C.): 1.3 × 10^10 cfu/ml
cell concentration (cfu/ml) (PJS cells; micellized LA 600 μg/ml, deterg. (Kotilen) 0.9%, 94 h, pH 6.3, 30° C.): 1.2 × 10^10 cfu/ml
cell concentration (cfu/ml) (PJS cells; micellized LA 1000 μg/ml, deterg. (Kotilen) 1.5%, 94 h, pH 6.3, 30° C.): 1.4 × 10^10 cfu/ml
cell concentration (cfu/ml) (PJS cells; micellized LA 1400 μg/ml, deterg. (Kotilen) 1.5%, 108 h, pH 6.5, 30° C.): 2.4 × 10^9 cfu/ml
cell concentration (cfu/ml) (PJS cells; micellized LA 1400 μg/ml, deterg. (Kotilen) 1.5%, 132 h, pH 6.5, 30° C.): 1.3 × 10^10 cfu/ml

conjugated linoleic acid [CLA]
effect on fatty tissues (fatty tissues): split fatty tissues
amount of the good high density lipoprotein (HDL) [3]: does not reduce
number of mammary, stomach and colon cancer incidences [4]: reduced
development of cancer cells (cancer cells): capable of inhibiting development of cancer cells
